Source: patent US8232269B2, “Amide compounds useful in therapy” (Pfizer Inc., priority 2008, dated 2012)
Where a name gives a salt, the structure may show the parent alone.

Target: T1, Progesterone Receptor (PR) (Homo sapiens, UniProt P06401)
T1 construct: endogenous in cells; host or cells: T47D human breast mammary carcinoma cells
T1 sequence (P06401 1-933): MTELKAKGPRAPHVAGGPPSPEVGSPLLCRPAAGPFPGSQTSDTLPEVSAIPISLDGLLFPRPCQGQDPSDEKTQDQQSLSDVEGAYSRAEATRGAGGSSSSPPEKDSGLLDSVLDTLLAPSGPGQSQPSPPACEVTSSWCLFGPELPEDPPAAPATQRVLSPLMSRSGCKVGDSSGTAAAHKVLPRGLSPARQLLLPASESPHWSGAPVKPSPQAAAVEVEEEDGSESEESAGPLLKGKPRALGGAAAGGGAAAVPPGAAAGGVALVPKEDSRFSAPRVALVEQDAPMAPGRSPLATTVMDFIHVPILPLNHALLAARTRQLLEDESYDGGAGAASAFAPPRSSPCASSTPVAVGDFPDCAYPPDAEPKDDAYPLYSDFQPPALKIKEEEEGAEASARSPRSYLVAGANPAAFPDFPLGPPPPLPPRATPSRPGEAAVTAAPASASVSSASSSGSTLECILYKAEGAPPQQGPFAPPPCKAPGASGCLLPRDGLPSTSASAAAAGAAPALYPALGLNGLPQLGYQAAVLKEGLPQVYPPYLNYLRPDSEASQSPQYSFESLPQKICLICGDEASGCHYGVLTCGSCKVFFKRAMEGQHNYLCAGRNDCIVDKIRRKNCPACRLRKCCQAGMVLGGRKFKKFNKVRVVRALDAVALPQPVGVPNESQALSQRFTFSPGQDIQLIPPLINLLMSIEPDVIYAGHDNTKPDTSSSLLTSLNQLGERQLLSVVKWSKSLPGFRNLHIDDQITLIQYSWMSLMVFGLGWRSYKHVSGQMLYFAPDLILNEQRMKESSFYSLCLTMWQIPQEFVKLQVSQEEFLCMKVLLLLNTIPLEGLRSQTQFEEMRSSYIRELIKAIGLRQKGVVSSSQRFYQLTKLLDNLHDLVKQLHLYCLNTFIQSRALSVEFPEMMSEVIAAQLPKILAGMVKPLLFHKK
Experiment: In vitro functional assay for progesterone receptor (PR) antagonists: inhibition of progesterone-induced alkaline phosphatase expression in T47D cells
Assay type: cell-based
Details: antagonist format, 5 nM progesterone, Ki calculated from IC50 with the Cheng-Prusoff equation
Summary of the method: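 Antagonist format: T47D cells (8750/well, phenol red-free DMEM + 5% CS-FCS) given half-log compound dilutions plus 5 nM progesterone (final), incubated overnight (≥16 h) at 37 °C. Alkaline phosphatase read by CSPD chemiluminescence after freeze-thaw lysis; 0.1 μM RU-486 final defines minimum.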

Which Ki does the source give for `CC(C)n1nc(-c2ccc(C#N)cc2)c(C2CC2)c1C(=O)NC1CNC1` [Example 10, N-Azetidin-3-yl-3-(4-cyanophenyl)-4-cyclopropyl-1-isopropyl-1H-pyrazole-5-carboxamide] here?
Its Ki is 285 nM.

Which Ki does the source give for `Cc1c(-c2ccc(C#N)cc2)nn(C2CCOC2)c1C(=O)NCC(C)(C)O` (single isomer, unassigned) [Example 80 Ent 2, 3-(4-Cyanophenyl)-N-(2-hydroxy-2-methylpropyl)-4-methyl-1-(tetrahydrofuran-3-yl)-1H-pyrazole-5-carboxamide] here?
Its Ki is > 733 nM.

`CCc1c(-c2ccc(C#N)cc2)nn(C(C)C)c1C(=O)NC` [Example 112, 3-(4-Cyanophenyl)-4-ethyl-1-isopropyl-N-methyl-1H-pyrazole-5-carboxamide] was tested. Which Ki did it give?
The Ki was 26 nM.

`CCc1c(-c2ccc(C#N)cc2)nn(C(C)CC)c1C(=O)NC(C)C` (racemic) [Example 102, (+/−)-1-sec-Butyl-3-(4-cyanophenyl)-4-ethyl-N-isopropyl-1H-pyrazole-5-carboxamide] was tested. Which Ki did it give?
Its Ki is 14.7 nM.

For `CC(C)n1nc(-c2ccc(C#N)cc2)c(C2CC2)c1C(=O)N[C@H]1CCNC1` [Example 9, 3-(4-Cyanophenyl)-4-cyclopropyl-1-isopropyl-N-[(3S)-pyrrolidin-3-yl]-1H-pyrazole-5-carboxamide hydrochloride], which Ki is on record?
The Ki was 836 nM.

How did the Ki turn out when `CC(NC(=O)c1c(C2CC2)c(-c2ccc(C#N)cc2)nn1C(C)C)c1cnn(C)c1` (racemic) [Example 39] was run?
Its Ki is 17.8 nM.

With `CCc1c(-c2ccc(C#N)cc2)nn(C(C)CC)c1C(=O)NC[C@@H](C)O` (mixture of isomers) [Example 107, 1-sec-Butyl-3-(4-cyanophenyl)-4-ethyl-N-[(2R)-2-hydroxypropyl]-1H-pyrazole-5-carboxamide] as the compound, how does the Ki read?
Its Ki is 63 nM.

Which Ki does the source give for `CCc1c(-c2ccc(C#N)cc2)nn(C(C)C)c1C(=O)NC(C)C` [Example 117, 3-(4-Cyanophenyl)-4-ethyl-N,1-diisopropyl-1H-pyrazole-5-carboxamide] here?
The Ki was 36.4 nM.

For `CCc1c(-c2ccc(C#N)cc2)nn(C(C)C)c1C(=O)NC[C@H](C)O` [Example 114, 3-(4-Cyanophenyl)-4-ethyl-N-[(2S)-2-hydroxypropyl]-1-isopropyl-1H-pyrazole-5-carboxamide], which Ki is on record?
The Ki was 30.9 nM.

`Cc1c(-c2ccc(C#N)cc2)nn(C2CCOC2)c1C(=O)NC[C@@H](C)O` (single isomer, unassigned) [Example 79 Diast 2] was tested. Which Ki did it give?
The Ki was 163 nM.

`CCCNC(=O)c1c(C2CC2)c(-c2ccc(C#N)cc2)nn1C(C)C` [Example 20, 3-(4-Cyanophenyl)-4-cyclopropyl-1-isopropyl-N-propyl-1H-pyrazole-5-carboxamide] was tested. Which Ki did it give?
Its Ki is 3.78 nM.

`Cc1cc(-c2nn(C(C)C)c(C(=O)NC[C@H](C)O)c2C)ccc1C#N` [Example 63, 3-(4-Cyano-3-methylphenyl)-N-[(2S)-2-hydroxypropyl]-1-isopropyl-4-methyl-1H-pyrazole-5-carboxamide] was tested. Which Ki did it give?
Its Ki is 6.24 nM.

For `CC(C)n1nc(-c2ccc(C#N)cc2)c(C2CC2)c1C(=O)N[C@@H]1CCNC1` [Example 8, 3-(4-Cyanophenyl)-4-cyclopropyl-1-isopropyl-N-[(3R)-pyrrolidin-3-yl]-1H-pyrazole-5-carboxamide hydrochloride], which Ki is on record?
The Ki was 162 nM.

For `CNC(=O)c1c(C#N)c(-c2ccc(C#N)cc2)nn1C(C)C` [Example 92, 4-Cyano-3-(4-cyanophenyl)-1-isopropyl-N-methyl-1H-pyrazole-5-carboxamide], which Ki is on record?
The Ki was 8.84 nM.

Which Ki does the source give for `Cc1c(-c2ccc(C#N)cc2)nn(C2CC2)c1C(=O)NC[C@H](C)O` [Example 86, 3-(4-Cyanophenyl)-1-cyclopropyl-N-[(2S)-2-hydroxypropyl]-4-methyl-1H-pyrazole-5-carboxamide] here?
Its Ki is > 137 nM.

With `CC(C)n1nc(-c2ccc(C#N)cc2)c(C2CC2)c1C(=O)N[C@@H]1CCN(S(C)(=O)=O)C1` [Example 13, 3-(4-Cyanophenyl)-4-cyclopropyl-1-isopropyl-N-[(3R)-1-(methylsulfonyl)pyrrolin-3-yl]-1H-pyrazole-5-carboxamide] as the compound, how does the Ki read?
The Ki was 34.8 nM.
